We go through 2 molecules from US7485652B2, “Indolyl derivatives as liver-X-receptor (LXR) modulators” (Hoffmann-La Roche Inc., priority 2004, dated 2009).

One experiment deals with T1, human LXR alpha (Homo sapiens, UniProt Q13133).
T1 construct: human LXR alpha (aa 164 to 447); made in house; host or cells: E. coli BL21(pLysS)
T1 sequence (Q13133 164-447): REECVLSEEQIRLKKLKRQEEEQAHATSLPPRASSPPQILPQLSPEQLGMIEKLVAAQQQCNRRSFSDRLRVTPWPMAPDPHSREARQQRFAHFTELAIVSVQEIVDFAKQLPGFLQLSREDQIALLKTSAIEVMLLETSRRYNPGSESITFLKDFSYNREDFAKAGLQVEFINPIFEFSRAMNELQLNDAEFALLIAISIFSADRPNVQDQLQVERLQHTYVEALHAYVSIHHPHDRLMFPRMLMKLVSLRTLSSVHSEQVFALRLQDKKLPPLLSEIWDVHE
As to the kind of experiment: Radioligand binding assay (scintillation proximity), LXR alpha. The conditions noted are these: GST-LXRα-LBD on SPA beads, radioligand displacement; read-out: LXRalpha Binding IC50. The method, then: (§1) The following tests were carried out in order to determine the activity of the compounds of the present invention. Background information on the performed assays can be found in: Nichols J S et al. “Development of a scintillation proximity assay for peroxisome proliferator-activated receptor gamma ligand binding domain”, Anal Biochem. 1998, 257: 112-119.
(§2) Mammalian expression vectors were constructed to express full-length human LXR alpha and LXR beta. Bacterial expression vectors were constructed to produce glutathione-s-transferase (GST) fused to the ligand binding domains (LBD) of human LXR alpha (aa 164 to 447) and human LXR beta (aa 155 to 460). To accomplish this, the portions of the sequences encoding the LBDs were amplified from full-length clones by PCR and then subdoned into the plasmid vectors. Final clones were verified by DNA sequence analysis (Willy et al., Genes Dev. 1995, 9:1033-45; Song et al., Proc Natl Acad Sci USA.1994, 91:10809-13). […]
(§3) LXR alpha and LXR beta receptor binding were assayed in buffer consisting of 50 mM HEPES, pH 7.4, 10 mM NaCl, 5 mM MgCl2. […] All binding assays were performed in 96-well plates and the amount of bound ligand was measured on a Packard TopCount using OptiPlates (Packard). Dose response curves were measured within a range of concentration from 10^−10 M to 10^−4 M.

The target in the next experiment is T2, human LXR beta (Homo sapiens, UniProt P55055).
T2 construct: human LXR beta (aa 155 to 460); made in house; host or cells: E. coli BL21(pLysS)
T2 sequence (P55055 155-460): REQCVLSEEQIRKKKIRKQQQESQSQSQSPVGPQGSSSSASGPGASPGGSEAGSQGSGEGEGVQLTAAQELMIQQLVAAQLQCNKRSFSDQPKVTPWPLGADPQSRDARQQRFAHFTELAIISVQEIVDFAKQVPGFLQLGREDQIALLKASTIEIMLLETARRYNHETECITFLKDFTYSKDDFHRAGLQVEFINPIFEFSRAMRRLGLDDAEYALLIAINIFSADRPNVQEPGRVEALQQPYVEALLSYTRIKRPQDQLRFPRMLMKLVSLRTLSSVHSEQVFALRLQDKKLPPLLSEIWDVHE
As to the kind of experiment: Radioligand binding assay (scintillation proximity), LXR beta. As to conditions: GST-LXR beta-LBD on SPA beads, radioligand displacement; read-out: LXRbeta Binding IC50. As to the method: as §1, §2, §3

As for `CC1Cc2cc(C(O)(C(F)(F)F)C(F)(F)F)ccc2N1Cc1cccc(CO)c1` (stereo not shown) [Example 50, 1,1,1,3,3,3-hexafluoro-2-[1-(3-hydroxymethyl-benzyl)-2-methyl-2,3-dihydro-1H-indol-5-yl]-propan-2-ol], the IC50 at human LXR alpha was 20 nM; at human LXR beta, 6 nM.
Taken in the same sequence, the figures for `Cc1cc2cc(C(O)(C(F)(F)F)C(F)(F)F)ccc2n1Cc1ccccc1` [Example 80, 2-(1-benzyl-2-methyl-1H-indol-5-yl)-1,1,1,3,3,3-hexafluoro-propan-2-ol] were 30 nM and 50 nM.
